Patent US20180319810A1, “SUBSTITUTED BRIDGED UREA ANALOGS AS SIRTUIN MODULATORS” (GlaxoSmithKline Intellectual Property (No.2) Limited, priority 2014, published 2018)

The compounds below were run against T1, SIRT1 (Homo sapiens, UniProt Q96EB6) (assay: Trp mass spectrometry assay of SIRT1 activation). Conditions: Trp peptide Ac-R-H-K-K(Ac)-W-NH2 0.5 μM, 120 μM βNAD+, 10 nM SIRT1, 25 min, 25° C.
T1 sequence (Q96EB6 1-747): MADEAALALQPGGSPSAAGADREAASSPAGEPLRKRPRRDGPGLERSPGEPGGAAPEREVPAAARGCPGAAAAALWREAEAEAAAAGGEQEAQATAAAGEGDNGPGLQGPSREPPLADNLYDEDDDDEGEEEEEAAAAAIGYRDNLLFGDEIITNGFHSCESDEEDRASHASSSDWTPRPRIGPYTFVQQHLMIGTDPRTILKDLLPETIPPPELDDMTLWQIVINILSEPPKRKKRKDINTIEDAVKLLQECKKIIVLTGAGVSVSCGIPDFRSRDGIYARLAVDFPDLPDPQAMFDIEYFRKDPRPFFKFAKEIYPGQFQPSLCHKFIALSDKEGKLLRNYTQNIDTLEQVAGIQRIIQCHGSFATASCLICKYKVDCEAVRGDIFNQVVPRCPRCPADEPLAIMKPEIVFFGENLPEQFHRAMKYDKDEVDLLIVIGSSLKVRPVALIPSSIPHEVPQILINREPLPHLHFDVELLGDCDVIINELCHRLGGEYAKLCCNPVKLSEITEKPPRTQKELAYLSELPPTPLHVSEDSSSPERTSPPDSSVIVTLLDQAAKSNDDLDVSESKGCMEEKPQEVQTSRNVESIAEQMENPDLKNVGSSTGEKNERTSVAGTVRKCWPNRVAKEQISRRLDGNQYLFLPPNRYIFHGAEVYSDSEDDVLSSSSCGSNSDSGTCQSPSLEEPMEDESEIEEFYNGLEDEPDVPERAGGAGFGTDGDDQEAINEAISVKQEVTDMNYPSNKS
Type: biochemical

TRP Activity (EC1.5, concentration of compound required to increase SIRT1 activity by 50% over control)	TRP MAX RESP (percent maximum fold activation relative to control)	Structure (SMILES)
B (EC1.5 1-25 μM)	A (Fold activation ≥150%)	Cc1ncc(-c2ccnc(NC(=O)N3c4nc(C(=O)N[C@H](C)C(F)(F)F)ncc4N4CC[C@H]3C4)c2)o1 [Example 115, (8S)—N9-(4-(2-methyloxazol-5-yl)pyridin-2-yl)-N2-((R)-1,1,1-trifluoropropan-2-yl)-7,8-dihydro-5,8-methanopyrimido[4,5-b][1,4]diazepine-2,9(6H)-dicarboxamide]
B (EC1.5 1-25 μM)	A (Fold activation ≥150%)	O=C(Nc1nccc(OC[C@@H](O)CO)n1)N1c2nc(-c3cccc(C(F)(F)F)c3)ncc2N2CCC[C@H]1C2 [Example 103, (9S)—N-(4-((S)-2,3-dihydroxypropoxy)pyrimidin-2-yl)-2-(3-(trifluoromethyl)phenyl)-8,9-dihydro-6H-5,9-methanopyrimido[4,5-b][1,4]diazocine-10(7H)-carboxamide]
A (EC1.5<1 μM)	A (Fold activation ≥150%)	O=C(Nc1cc(OC[C@@H](O)CO)ncn1)N1c2nc(-c3cccc(C(F)(F)F)c3)ncc2N2CCC[C@H]1C2 [Example 96, (9S)—N-(6-((S)-2,3-dihydroxypropoxy)pyrimidin-4-yl)-2-(3-(trifluoromethyl)phenyl)-8,9-dihydro-6H-5,9-methanopyrimido[4,5-b][1,4]diazocine-10(7H)-carboxamide]
